Results taken from patent publication US10471046B2, “Method for treating, preventing, or reducing the risk of skin infection” (Melinta Subsidiary Corp., priority 2014, dated 2019).
In brackets after ≈: the same amount, converted by molar mass. Like-named read-outs stand apart in the source and are kept apart here.

Tested on: S. aureus
Experiment: Minimum inhibitory concentrations (MICs) for S. aureus of exemplary compounds (Table 2)
Type: cell-based
Details: Staphylococcus aureus, read-out: MICs
Outline: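 MICs (μg/mL) against S. aureus come from microtiter-tray dilution susceptibility testing per NCCLS M7-A5, comparing growth with and without compound.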

[1] = minimum inhibitory concentrations for S. aureus

SMILES | MIC [1] [mg/L] | MIC [mg/L]
CC(=O)NC[C@H]1CN(c2ccc(-c3ccc([C@H](CO)NCc4ccncc4)cc3)c(F)c2)C(=O)O1 [Compound 4029, N-[3-(2-Fluoro-4′-{2-hydroxy-1-(R)-[(pyridin-4-ylmethyl)-amino]-ethyl}-biphenyl-4-yl)-2-oxo-oxazolidin-5-(S)-ylmethyl]-acetamide] | 4 (≈ 8.36 µM) | 
CC(=O)NC[C@H]1CN(c2ccc(-c3ccc(Cc4csc(NCC5CCCO5)n4)cc3)c(F)c2)C(=O)O1 (stereo partly drawn) [Compound 1020, N-[3-(2-Fluoro-4′-{2-[(tetrahydro-furan-2-ylmethyl)-amino]-thiazol-4-ylmethyl}-biphenyl-4-yl)-2-oxo-oxazolidin-5-(S)-ylmethyl]-acetamide] |  | 1 (≈ 1.91 µM)
CC(=O)NC[C@H]1CN(c2ccc(-c3ccc(CNC[C@H](O)CSc4nnc[nH]4)cc3)c(F)c2)C(=O)O1 [Compound 5011] | 4 (≈ 7.77 µM) | 
CC(=O)NC[C@H]1CN(c2ccc(-c3ccc(CNCc4nn(-c5ccccc5)nc4C)cc3)c(F)c2)C(=O)O1 [Compound 4146, N-[3-(2-Fluoro-4′-{[(5-methyl-2-phenyl-2H-[1,2,3]triazol-4-ylmethyl)-amino]-methyl}-biphenyl-4-yl)-2-oxo-oxazolidin-5-(S)-ylmethyl]-acetamide] | 4 (≈ 7.57 µM) | 
CC(=O)NC[C@H]1CN(c2ccc(-c3ccc(CNCC(=O)N4CCOCC4)cc3)c(F)c2)C(=O)O1 [Compound 4316, N-(3-{2-Fluoro-4′-[(2-morpholin-4-yl-2-oxo-ethylamino)-methyl]-biphenyl-4-yl}-2-oxo-oxazolidin-5-(S)-ylmethyl)-acetamide] | 4 (≈ 8.26 µM) | 
CC(=O)NC[C@H]1CN(c2ccc(-c3ccc(CNCc4cnccc4N)cc3)c(F)c2)C(=O)O1 [Compound 4135, N-[3-(4′-{[(4-Amino-pyridin-3-ylmethyl)-amino]-methyl}-2-fluoro-biphenyl-4-yl)-2-oxo-oxazolidin-5-(S)-ylmethyl]-acetamide] | 4 (≈ 8.63 µM) | 
CC(=O)NC[C@H]1CN(c2ccc(-c3ccc(CNCc4ccncc4)nc3)c(F)c2)C(=O)O1 [Compound 4073, N-{3-[3-Fluoro-4-(6-{[(pyridin-4-ylmethyl)-amino]-methyl}-pyridin-3-yl)-phenyl]-2-oxo-oxazolidin-5-(S)-ylmethyl}-acetamide] | 2 (≈ 4.45 µM) | 
CC(=O)NC[C@H]1CN(c2ccc(-c3ccc(C(N)c4nn[nH]n4)cc3)c(F)c2)C(=O)O1 (mixture of isomers) [Compound 1040, N-(3-{4′-[Amino-(2H-tetrazol-5-(R/S)-yl)-methyl]-2-fluoro-biphenyl-4-yl}-2-oxo-oxazolidin-5-(S)-ylmethyl)-acetamide] | 128 (≈ 301 µM) | 
CC(=O)NC[C@H]1CN(c2ccc(-c3ccc([C@@H](CO)NCc4cocn4)cc3)c(F)c2)C(=O)O1 [Compound 4200, N-[3-(2-Fluoro-4′-{2-hydroxy-1-(S)-[(oxazol-4-ylmethyl)-amino]-ethyl}-biphenyl-4-yl)-2-oxo-oxazolidin-5-(S)-ylmethyl]-acetamide] | 4 (≈ 8.54 µM) | 
CC(=O)NC[C@H]1CN(c2ccc(-c3ccc(CN4CC[S+]([O-])CC4)cc3)c(F)c2)C(=O)O1 [Compound 1065, N-{3-[2-Fluoro-4′-(1-oxo-1 lambda*4*-thiomorpholin-4-ylmethyl)-biphenyl-4-yl]-2-oxo-oxazolidin-5-(S)-ylmethyl}-acetamide] | 2 (≈ 4.35 µM) | 
CC(=O)NC[C@H]1CC(c2ccc(-c3ccc(CNC(=O)c4ccccc4C(=O)O)cc3)cc2)=NO1 [Compound 4106, N-{4′-[5-(R)-(Acetylamino-methyl)-4,5-dihydro-isoxazol-3-yl]-biphenyl-4-ylmethyl}-phthalamic acid] | 128 (≈ 271 µM) | 
CC(=O)NC[C@H]1CN(c2ccc(-c3ccc(CNCCc4c[nH]cn4)cc3)c(F)c2)C(=O)O1 [Compound 4227, N-[3-(2-Fluoro-4′-{[2-(1H-imidazol-4-yl)-ethylamino]-methyl}-biphenyl-4-yl)-2-oxo-oxazolidin-5-(S)-ylmethyl]-acetamide] | 4 (≈ 8.86 µM) | 
CC(=O)NC[C@H]1CN(c2ccc(-c3ccc(CN(Cc4csnn4)C(N)=O)cc3)c(F)c2)C(=O)O1 [Compound 4299, N-{3-[2-Fluoro-4′-(1-[1,2,3]thiadiazol-4-ylmethyl-ureidomethyl)-biphenyl-4-yl]-2-oxo-oxazolidin-5-(S)-ylmethyl}-acetamide] | 2 (≈ 4.01 µM) | 
CC(=O)NC[C@H]1CN(c2ccc(-c3ccc(CNCc4c(N)oc5ccccc5c4=O)cc3)c(F)c2)C(=O)O1 [Compound 4129, N-[3-(4′-{[(2-Amino-4-oxo-4H-chromen-3-ylmethyl)-amino]-methyl}-2-fluoro-biphenyl-4-yl)-2-oxo-oxazolidin-5-(S)-ylmethyl]-acetamide] | 4 (≈ 7.54 µM) | 

Second part, led by results:

MIC [1] [mg/L] | SMILES | MIC [mg/L]
0.25 (≈ 0.565 µM) | CC(=O)NC[C@H]1CN(c2ccc(-c3ccc(CSc4cnn[nH]4)nc3)c(F)c2)C(=O)O1 [Compound 2040, N-(3-{3-Fluoro-4-[6-(3H-[1,2,3]triazol-4-ylsulfanylmethyl)-pyridin-3-yl]-phenyl}-2-oxo-oxazolidin-5-(S)-ylmethyl)-acetamide] | 
1 (≈ 2.08 µM) | CC(=O)NC[C@H]1CN(c2ccc(-c3ccc(C[S+]([O-])Cc4ccccn4)cc3)c(F)c2)C(=O)O1 (stereo partly drawn) [Compound 4217, N-{3-[2-Fluoro-4′-(pyridin-2-ylmethanesulfinylmethyl)-biphenyl-4-yl]-2-oxo-oxazolidin-5-(S)-ylmethyl}-acetamide] | 
1 (≈ 2.28 µM) | CC(=O)NC[C@H]1CN(c2ccc(-c3ccc(Cn4cc(CO)nn4)cc3)c(F)c2)C(=O)O1 [Compound 1028, N-{3-[2-Fluoro-4′-(4-hydroxymethyl-[1,2,3]triazol-1-ylmethyl)-biphenyl-4-yl]-2-oxo-oxazolidin-5-(S)-ylmethyl}-acetamide] | 
2 (≈ 4.54 µM) | CC(=O)NC[C@H]1CN(c2ccc(-c3ccc(CNC(=O)C4CCN4)cc3)c(F)c2)C(=O)O1 (stereo partly drawn) [Compound 4296, Azetidine-2-carboxylic acid {4′-[5-(S)-(acetylamino-methyl)-2-oxo-oxazolidin-3-yl]-2′-fluoro-biphenyl-4-ylmethyl}-amide] | 
0.25 (≈ 0.562 µM) | O=C(CCl)NC[C@H]1CN(c2ccc(-c3ccc(Cn4cnnn4)cc3)c(F)c2)C(=O)O1 [Compound 1033, 2-Chloro-N-[3-(2-fluoro-4′-tetrazol-1-ylmethyl-biphenyl-4-yl)-2-oxo-oxazolidin-5-(S)-ylmethyl]-acetamide] | 
1 (≈ 2.2 µM) | CC(=O)NC[C@H]1CN(c2ccc(-c3ccc(CNCc4nccs4)cc3)c(F)c2)C(=O)O1 [Compound 4074, N-[3-(2-Fluoro-4′-{[(thiazol-2-ylmethyl)-amino]-methyl}-biphenyl-4-yl)-2-oxo-oxazolidin-5-(S)-ylmethyl]-acetamide] | 
0.25 (≈ 0.548 µM) | CC(=O)NC[C@H]1CN(c2ccc(-c3ccc(CSc4nnc(N)[nH]4)cc3)c(F)c2)C(=O)O1 [Compound 2028, N-{3-[4′-(5-Amino-4H-[1,2,4]triazol-3-ylsulfanylmethyl)-2-fluoro-biphenyl-4-yl]-2-oxo-oxazolidin-5-(S)-ylmethyl}-acetamide] | 
1 (≈ 2.01 µM) | CC(=O)NC[C@H]1CN(c2ccc(-c3ccc(CNCc4ccnc5ccccc45)cc3)c(F)c2)C(=O)O1 [Compound 4016, N-[3-(2-Fluoro-4′-{[(quinolin-4-ylmethyl)-amino]-methyl}-biphenyl-4-yl)-2-oxo-oxazolidin-5-(S)-ylmethyl]-acetamide] | 
1 (≈ 2.07 µM) | CC(=O)NC[C@H]1CN(c2ccc(-c3ccc(C(=O)NCCc4cnc[nH]4)c(F)c3)c(F)c2)C(=O)O1 [Compound 4191, 4′-[5-(S)-(Acetylamino-methyl)-2-oxo-oxazolidin-3-yl]-3,2′-difluoro-biphenyl-4-carboxylic acid [2-(3H-imidazol-4-yl)-ethyl]-amide] | 
0.25 (≈ 0.548 µM) | CSc1nnn(Cc2ccc(-c3ccc(N4C[C@H](CNC(C)=O)OC4=O)cc3F)cc2)n1 [Compound 1080, N-{3-[2-Fluoro-4′-(5-methylsulfanyl-tetrazol-2-ylmethyl)-biphenyl-4-yl]-2-oxo-oxazolidin-5-(S)-ylmethyl}-acetamide] | 
0.25 (≈ 0.488 µM) | CC(=O)NC[C@H]1CN(c2ccc(-c3ccc(CN(C)Cc4cnc5ccccc5c4)cc3)c(F)c2)C(=O)O1 [Compound 4215, N-(3-{2-Fluoro-4′-[(methyl-quinolin-3-ylmethyl-amino)-methyl]-biphenyl-4-yl}-2-oxo-oxazolidin-5-(S)-ylmethyl)-acetamide] | 
1 (≈ 2.22 µM) | CC(=O)NC[C@H]1CN(c2ccc(-c3ccc(COCc4ccncc4)cc3)c(F)c2)C(=O)O1 [Compound 4196, N-{3-[2-Fluoro-4′-(pyridin-4-ylmethoxymethyl)-biphenyl-4-yl]-2-oxo-oxazolidin-5-(S)-ylmethyl}-acetamide] | 
1 (≈ 2.08 µM) | CC(=O)NC[C@H]1CN(c2ccc(-c3ccc(CNCc4c[nH]c(=O)[nH]c4=O)cc3)c(F)c2)C(=O)O1 [Compound 4101, N-[3-(4′-{[(2,4-Dioxo-1,2,3,4-tetrahydro-pyrimidin-5-ylmethyl)-amino]-methyl}-2-fluoro-biphenyl-4-yl)-2-oxo-oxazolidin-5-(S)-ylmethyl]-acetamide] | 
1 (≈ 1.94 µM) | CC(=O)NC[C@H]1CN(c2ccc(-c3ccc(CN(C)C(=O)c4ccc5cc[nH]c5c4)cc3)c(F)c2)C(=O)O1 [Compound 4050, 1H-Indole-6-carboxylic acid {4′-[5-(S)-(acetylamino-methyl)-2-oxo-oxazolidin-3-yl]-2′-fluoro-biphenyl-4-ylmethyl}-methyl-amide] | 
